Laboratory results from PMC5149019, “Synthesis, Characterization and Cytotoxicity of Alkylated Quercetin Derivatives” (Iranian Journal of Pharmaceutical Research : IJPR, 2016).
Values after ≈ are worked out from the molar mass of the structure shown. Blank lines part the entries; values can stand above or below the compound they belong to.

Key:
[1] = test system: cancer cells; settings: cited from earlier work
[2] = test system: MCF-7 cells; assay: MTT cytotoxicity assay, MCF-7 cells; format: cell-based, human; settings: for IC50: Homo sapiens, MCF7, MCF-7 cells, 48 h exposure, MTT
Procedure: (§1) Taking solubility of the derivatives into consideration, BQ and GQ were selected for the primary cytotoxicity study. According to the result of the primary cytotoxicity study, the cytotoxicity of GQ on NCI-H446, A549, MGC-803 and SGC-7901 cell lines was further investigated. To justify the effectiveness of BQ and GQ, cytotoxicity of the parent compound quercetin on all the cell lines used in this study was determined either. Briefly, 8000 cells with 0.1 mL medium were seeded in 96-well microplates. The derivatives or quercetin were dissolved in DMSO (50 mM) and then diluted with the medium to a series of testing concentrations. After exposure to the derivatives or quercetin for 48 h, cells were carefully washed by PBS three times and then 0.1 mL MTT (0.5 mg/mL) was added to each well. DMSO was used as solvent for following spectrum analysis at 570 nm. Proliferation values were calculated with the formula as follow: proliferation = (Atest-Ablank)/(Acontrol-Ablank). According to the proliferation data, all IC50 values were calculated by SPSS software using probit regression assay.

[3] = Solubility in DMEM medium by turbidimetry; format: physicochemical; settings: turbidimetry at 630 nm; for solubility at 48 h: 37 °C, aqueous buffer, kinetic from dmso stock
Procedure: Solubility of the derivatives was evaluated by turbidimetry as previously described ([7]). Briefly, derivatives were dissolved in DMSO at a final concentration of 50 mM, and then diluted by DMEM medium at final concentrations of 20, 40, 60, 80, 100, 120, 140, 160, 180 and 200 μM. After these solutions were incubated at 37 ℃ for 48 h, absorbances of them at 630 nm were measured.

[4] = test system: Caco-2 cells; assay: MTT cytotoxicity assay, Caco-2 cells; format: cell-based; settings: Homo sapiens, 48 h exposure
Procedure: as §1

[5] = test system: NCI-H446; assay: MTT cytotoxicity assay, NCI-H446 cells; format: cell-based; settings: Homo sapiens, 48 h exposure
Procedure: as §1

[6] = test system: SGC-7901; assay: MTT cytotoxicity assay, SGC-7901 cells; format: cell-based; settings: Homo sapiens, 48 h exposure
Procedure: as §1

[7] = test system: MGC-803; assay: MTT cytotoxicity assay, MGC-803 cells; format: cell-based; settings: Homo sapiens, 48 h exposure
Procedure: as §1

[8] = test system: A549; assay: MTT cytotoxicity assay, A549 cells; format: cell-based; settings: Homo sapiens, 48 h exposure
Procedure: as §1

[9] = compared with quercetin, ref [5]

SMILES: CC(=O)Oc1cc(O)c2c(=O)c(OC(C)=O)c(-c3ccc(OC(C)=O)c(OC(C)=O)c3)oc2c1 [3,7,3′,4′-O-tetraacetylquercetin]
cytotoxicity compared with quercetin [1, 9]: about 3 fold

SMILES: COc1cc(O)c2c(=O)c(OC)c(-c3ccc(OC)c(OC)c3)oc2c1 [3,7,3′,4′-O-tetramethylquercetin]
cytotoxicity compared with quercetin (in words) [1, 9]: decreases the cytotoxicity

SMILES: C=CCOc1cc(O)c2c(=O)c(O)c(-c3ccc(O)c(O)c3)oc2c1 [AQ, 7-O-allylquercetin]
inhibition rate to MCF-7 cells ([2]; at the highest concentration): less than 50% | solubility at 48 h [3]: ~140 µM (≈ 47.9 µg/mL)

SMILES: O=c1c(O)c(-c2ccc(O)c(O)c2)oc2cc(O)cc(O)c12 [Quercetin]
IC50 [5]: 68.9 µM | IC50 [6]: 75.7 µM | IC50 [4]: 340 µM | IC50 [2]: 343 µM | IC50 [7]: 80.6 µM | IC50 [8]: 77.2 µM

SMILES: O=c1c(O)c(-c2cc(O)c(O)c(S(=O)(=O)O)c2)oc2c(S(=O)(=O)O)c(O)cc(O)c12 [quercetin-5′,8-disulfonate]
increased cytotoxicity relative to quercetin ([1]; relative to quercetin, ref [4]): about 1.5 fold

Continued, in another order:

solubility at 48 h [3]: ~180 µM (≈ 64.5 µg/mL)
SMILES: CCCCOc1cc(O)c2c(=O)c(O)c(-c3ccc(O)c(O)c3)oc2c1 [BQ, 7-O-Butylquercetin]
IC50 [4]: 66.8 µM | IC50 [2]: 38.6 µM

solubility in DMEM medium (in words) ([3]; 37 ℃, 48 h): almost insoluble
SMILES: O=c1c(O)c(-c2ccc(O)c(O)c2)oc2cc(OCC=Cc3ccccc3)cc(O)c12 [CQ, 7-O-cinnamylquercetin]

solubility at 48 h [3]: ~180 µM (≈ 78.9 µg/mL)
SMILES: CC(C)=CCC/C(C)=C/COc1cc(O)c2c(=O)c(O)c(-c3ccc(O)c(O)c3)oc2c1 [GQ, 7-O-geranylquercetin]
IC50 [5]: 27.6 µM | IC50 [6]: 18.5 µM | IC50 [4]: 43.7 µM | IC50 [2]: 20.2 µM | IC50 [7]: 25.4 µM | IC50 [8]: 29.5 µM
